Experiments:
Test in all cases: relative viability (nuclei count vs DMSO), 5 days (fraction); higher = more cells survive
[1] = compound: CC[C@@H]1C(=O)N(C)c2cnc(Nc3ccc(C(=O)NC4CCN(C)CC4)cc3OC)nc2N1C1CCCC1 [BI-2536] + Nc1ncn([C@H]2C[C@H](O)[C@@H](CO)O2)c(=O)n1 [Decitabine] (partner 2 µM)
In short: (§1)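 Lung cancer cell lines, seeded in 1536-well plates, were treated the following day by pin tool with a single drug or with five library-drug doses (not always all listed) in √10 steps on top of a fixed anchor-drug dose. Cells were fixed and nuclei stained in one step after 5 days, and nuclei were counted. Relative viability is the nuclei count for treated wells divided by that for vehicle wells, reported as medians of duplicate plates.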

[2] = compound: CC[C@@H]1C(=O)N(C)c2cnc(Nc3ccc(C(=O)NC4CCN(C)CC4)cc3OC)nc2N1C1CCCC1 [BI-2536] + CC(=O)c1c(C)c2cnc(Nc3ccc(N4CCNCC4)cn3)nc2n(C2CCCC2)c1=O [Palbociclib] (partner 0.5 µM)
In short: as §1

[3] = compound: CC1CC(=O)N(C2=CN=C(N=C2N1C3CCCC3)NC4=C(C=C(C=C4)C(=O)NC5CCN(CC5)C)OC)C [NPK76-II-72-1] + C[C@@H](Oc1cc(-c2cnn(C3CCNCC3)c2)cnc1N)c1c(Cl)ccc(F)c1Cl [Crizotinib] (partner 1 µM)
In short: as §1

[4] = compound: CC1CC(=O)N(C2=CN=C(N=C2N1C3CCCC3)NC4=C(C=C(C=C4)C(=O)NC5CCN(CC5)C)OC)C [NPK76-II-72-1] + C[C@]1(O)C[C@@H](c2nc(-c3ccc4ccc(-c5ccccc5)nc4c3)c3c(N)nccn32)C1 [Linsitinib] (partner 1 µM)
In short: as §1

Cell Line | relative viability ([1]; first compound 0.01 µM) | relative viability ([1]; first compound 0.03162 µM) | relative viability ([1]; first compound 0.1 µM) | relative viability ([1]; first compound 0.3162 µM) | relative viability ([1]; first compound 1 µM) | relative viability ([2]; first compound 0.01 µM) | relative viability ([2]; first compound 0.03162 µM) | relative viability ([2]; first compound 0.1 µM) | relative viability ([2]; first compound 0.3162 µM) | relative viability ([2]; first compound 1 µM) | relative viability ([3]; first compound 0.01 µM) | relative viability ([3]; first compound 0.03162 µM) | relative viability ([3]; first compound 0.1 µM) | relative viability ([3]; first compound 0.3162 µM) | relative viability ([3]; first compound 1 µM) | relative viability ([4]; first compound 0.01 µM) | relative viability ([4]; first compound 0.03162 µM) | relative viability ([4]; first compound 0.1 µM) | relative viability ([4]; first compound 0.3162 µM) | relative viability ([4]; first compound 1 µM)
NCI-H522 | 0.715 | 0.626 | 0.698 | 0.312 | 0.358 | 1 | 0.922 | 1.13 | 0.4 | 0.303 | – | – | – | – | – | – | – | – | – | –
NCI-H596 | 1.07 | 1.25 | 0.996 | 0.611 | 0.417 | – | – | – | – | – | 1 | 1.04 | 0.95 | 1.02 | 1.05 | 1.02 | 1.14 | 1.06 | 1.13 | 1.09
NCI-H1299 | – | – | – | – | – | – | – | – | – | – | 0.921 | 0.911 | 0.984 | 0.932 | 0.919 | 0.999 | 0.96 | 1.01 | 0.98 | 1.03
NCI-H1395 | 0.628 | 0.509 | 0.366 | 0.337 | 0.345 | 0.574 | 0.516 | 0.339 | 0.347 | 0.375 | – | – | – | – | – | 1.08 | 1.17 | 1.22 | 1.13 | 1.22
NCI-H1563 | – | – | – | – | – | – | – | – | – | – | 0.875 | 0.905 | 0.84 | 0.825 | 0.932 | 1.07 | 1.29 | 1.11 | 1.16 | 1.2
NCI-H1648 | 0.536 | 0.451 | 0.447 | 0.195 | 0.29 | 0.288 | 0.131 | 0.251 | 0.229 | 0.29 | – | – | – | – | – | – | – | – | – | –
NCI-H1650 | 0.388 | 0.327 | 0.278 | 0.11 | 0.148 | 0.382 | 0.282 | 0.188 | 0.129 | 0.145 | 1.01 | 1.07 | 0.861 | 0.917 | 1.11 | – | – | – | – | –
